Measured values: ChEMBL document CHEMBL1201862, “PubChem BioAssay data set” (2004)
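The compound was tested at five concentrations on cells cultured in 96-well plates, with a 48-hour exposure period. The concentration for 50% growth inhibition is given as GI50.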 The source made the active and inactive calls. No stated cut-off is given here; in the data, active = GI50 up to about 1.1 µM and inactive = higher.

Tests used:
Experiment in all cases: growth of human tumour cells (NCI), 48 h
OVCAR-8 = test system: OVCAR-8
EKVX = test system: EKVX
HOP-92 = test system: HOP-92
PC-3 = test system: PC-3
SF-268 = test system: SF-268
SK-MEL-28 = test system: SK-MEL-28
SF-539 = test system: SF-539
HT-29 = test system: HT-29
SR = test system: SR
NCI/ADR-RES = test system: NCI/ADR-RES
OVCAR-3 = test system: OVCAR-3
ACHN = test system: ACHN
DU-145 = test system: DU-145
U-251 = test system: U-251
K562 = test system: K562
OVCAR-4 = test system: OVCAR-4
M14 = test system: M14
NCI-H460 = test system: NCI-H460
MCF7 = test system: MCF7
NCI-H23 = test system: NCI-H23
LOX IMVI = test system: LOX IMVI
MDA-N = test system: MDA-N
SNB-19 = test system: SNB-19
KM12 = test system: KM12
RPMI-8226 = test system: RPMI-8226
A498 = test system: A498
MOLT-4 = test system: MOLT-4
HCC 2998 = test system: HCC 2998
IGROV-1 = test system: IGROV-1
UO-31 = test system: UO-31
UACC-257 = test system: UACC-257
CCRF-CEM = test system: CCRF-CEM
Hs-578T = test system: Hs-578T
COLO 205 = test system: COLO 205
SK-MEL-2 = test system: SK-MEL-2
T47D = test system: T47D
OVCAR-5 = test system: OVCAR-5
NCI-H226 = test system: NCI-H226
MDA-MB-435 = test system: MDA-MB-435
SK-MEL-5 = test system: SK-MEL-5
SW-620 = test system: SW-620
MDA-MB-231 = test system: MDA-MB-231
HOP-62 = test system: HOP-62
SF-295 = test system: SF-295
CAKI-1 = test system: CAKI-1
TK-10 = test system: TK-10
UACC-62 = test system: UACC-62
HCT-15 = test system: HCT-15
SK-OV-3 = test system: SK-OV-3
SNB-75 = test system: SNB-75
Malme-3M = test system: Malme-3M
786-0 = test system: 786-0
HL-60 = test system: HL-60
RXF 393 = test system: RXF 393
NCI-H522 = test system: NCI-H522
A549 = test system: A549
HCT-116 = test system: HCT-116
SN12C = test system: SN12C

SMILES: CC(=O)O[C@H]1CN(S(=O)(=O)c2ccc(C)cc2)C[C@@H]1C1CCCCC1
- GI50 (OVCAR-8): 22.7 µM (inactive)
- GI50 (EKVX): 17 µM (inactive)
- GI50 (HOP-92): 23.2 µM (inactive)
- GI50 (PC-3): 20.1 µM (inactive)
- GI50 (SF-268): 26.7 µM (inactive)
- GI50 (SK-MEL-28): 20.5 µM (inactive)
- GI50 (SF-539): < 0.01 µM (active)
- GI50 (HT-29): 24.4 µM (inactive)
- GI50 (SR): 18.6 µM (inactive)
- GI50 (NCI/ADR-RES): 19.5 µM (inactive)
- GI50 (OVCAR-3): 18 µM (inactive)
- GI50 (ACHN): 36.9 µM (inactive)
- GI50 (DU-145): 32.9 µM (inactive)
- GI50 (U-251): 29.7 µM (inactive)
- GI50 (K562): 32.9 µM (inactive)
- GI50 (OVCAR-4): 31.9 µM (inactive)
- GI50 (M14): 17.7 µM (inactive)
- GI50 (NCI-H460): 31.7 µM (inactive)
- GI50 (MCF7): 20.8 µM (inactive)
- GI50 (NCI-H23): 36.3 µM (inactive)
- GI50 (LOX IMVI): 21.6 µM (inactive)
- GI50 (MDA-N): 25.5 µM (inactive)
- GI50 (SNB-19): 55.3 µM (inactive)
- GI50 (KM12): 17.9 µM (inactive)
- GI50 (RPMI-8226): 33.1 µM (inactive)
- GI50 (A498): > 100 µM (inactive)
- GI50 (MOLT-4): 28.5 µM (inactive)
- GI50 (HCC 2998): 45.6 µM (inactive)
- GI50 (IGROV-1): 18.8 µM (inactive)
- GI50 (UO-31): 38.2 µM (inactive)
- GI50 (UACC-257): 18 µM (inactive)
- GI50 (CCRF-CEM): 37.5 µM (inactive)
- GI50 (Hs-578T): 18.9 µM (inactive)
- GI50 (COLO 205): 46.8 µM (inactive)
- GI50 (SK-MEL-2): 18.7 µM (inactive)
- GI50 (T47D): 40.6 µM (inactive)
- GI50 (OVCAR-5): 39 µM (inactive)
- GI50 (NCI-H226): 16.7 µM (inactive)
- GI50 (MDA-MB-435): 27.9 µM (inactive)
- GI50 (SK-MEL-5): 10.6 µM (inactive)
- GI50 (SW-620): 26.1 µM (inactive)
- GI50 (MDA-MB-231): 51.4 µM (inactive)
- GI50 (HOP-62): 35.8 µM (inactive)
- GI50 (SF-295): 14.4 µM (inactive)
- GI50 (CAKI-1): 45.8 µM (inactive)
- GI50 (TK-10): 21.9 µM (inactive)
- GI50 (UACC-62): 22.6 µM (inactive)
- GI50 (HCT-15): 28.4 µM
- GI50 (SK-OV-3): 43.7 µM (inactive)
- GI50 (SNB-75): 24.9 µM (inactive)

SMILES: O=S1(=O)OCCOS(=O)(=O)C1(F)Br
- GI50 (OVCAR-8): > 100 µM (inactive)
- GI50 (EKVX): > 100 µM (inactive)
- GI50 (PC-3): > 100 µM (inactive)
- GI50 (SF-268): > 100 µM (inactive)
- GI50 (SK-MEL-28): > 100 µM (inactive)
- GI50 (SF-539): > 100 µM (inactive)
- GI50 (Malme-3M): > 100 µM (inactive)
- GI50 (HT-29): > 100 µM (inactive)
- GI50 (SR): > 100 µM (inactive)
- GI50 (NCI/ADR-RES): > 100 µM (inactive)
- GI50 (OVCAR-3): > 100 µM (inactive)
- GI50 (786-0): > 100 µM (inactive)
- GI50 (ACHN): > 100 µM (inactive)
- GI50 (DU-145): > 100 µM (inactive)
- GI50 (U-251): > 100 µM (inactive)
- GI50 (K562): > 100 µM (inactive)
- GI50 (OVCAR-4): > 100 µM (inactive)
- GI50 (M14): > 100 µM (inactive)
- GI50 (MCF7): > 100 µM (inactive)
- GI50 (NCI-H23): > 100 µM (inactive)
- GI50 (LOX IMVI): > 100 µM (inactive)
- GI50 (MDA-N): > 100 µM (inactive)
- GI50 (SNB-19): > 100 µM (inactive)
- GI50 (HL-60): > 100 µM (inactive)
- GI50 (RXF 393): > 100 µM (inactive)
- GI50 (KM12): > 100 µM (inactive)
- GI50 (RPMI-8226): > 100 µM (inactive)
- GI50 (MOLT-4): > 100 µM (inactive)
- GI50 (NCI-H522): > 100 µM (inactive)
- GI50 (HCC 2998): > 100 µM (inactive)
- GI50 (UO-31): > 100 µM (inactive)
- GI50 (UACC-257): > 100 µM (inactive)
- GI50 (A549): > 100 µM (inactive)
- GI50 (CCRF-CEM): > 100 µM (inactive)
- GI50 (Hs-578T): > 100 µM (inactive)
- GI50 (COLO 205): > 100 µM (inactive)
- GI50 (SK-MEL-2): > 100 µM (inactive)
- GI50 (T47D): > 100 µM (inactive)
- GI50 (OVCAR-5): > 100 µM (inactive)
- GI50 (HCT-116): > 100 µM (inactive)
- GI50 (NCI-H226): > 100 µM (inactive)
- GI50 (MDA-MB-435): > 100 µM (inactive)
- GI50 (SK-MEL-5): > 100 µM (inactive)
- GI50 (SW-620): > 100 µM (inactive)
- GI50 (SN12C): > 100 µM (inactive)
- GI50 (HOP-62): > 100 µM (inactive)
- GI50 (SF-295): > 100 µM (inactive)
- GI50 (CAKI-1): > 100 µM (inactive)
- GI50 (TK-10): > 100 µM (inactive)
- GI50 (UACC-62): > 100 µM (inactive)
- GI50 (HCT-15): > 100 µM
- GI50 (SK-OV-3): > 100 µM (inactive)
- GI50 (SNB-75): > 100 µM (inactive)
